From patent EP1025077B1, “NOVEL ARYLOXY-ALKYL-DIALKYLAMINES” (Wyeth, priority 1997, dated 1999)
Counter-ions that a name gives are not always drawn. Like-named read-outs stand apart in the source and are kept apart here.

Experiments:
[1] = test system: Immature Sprague-Dawley rats (female, 18 days old); assay: Rat Uterotrophic/Antiuterotrophic Bioassay (uterine wet weight); format: in vivo; details: for uterine wet weight, 1 uG 17_-estradiol: 1 uG daily ip; for uterine wet weight, 10uG: 10 uG compound daily ip; for uterine wet weight, 100uG: 100 uG compound daily ip
Ishikawa cells = assay: Ishikawa Cell Alkaline Phosphatase Assay; format: cell-based, human; details: for % Activation: compound alone, percent of response related to 1 nM 17_estradiol; for EC50: Homo sapiens, Ishikawa, cells treated for 48 h
Method: Ishikawa cells were maintained in DMEM/F12 (50%:50%) containing phenol red + 10% fetal bovine serum and the medium was supplemented with 2 mM Glutamax, 1% Pen/Strap and 1 mM sodium pyruvate. Five days prior to the beginning of each experiment (treatment of cells) the medium was changed to phenol red-free DMEM/F12 + 10% dextran coated charcoal stripped serum. […] Sample population for at each dose was n=8.
50_L of lysis buffer (0.1 M Tris-HCl, pH 9.8, 0.2% Triton X-100) is added to each well. […] Plates are thawed at 37°C followed by the addition of 150_L of 0.1 M Tris-HCl, pH 9.8, containing 4 mM para-nitrophenylphosphate (pNPP) to each well (final concentration, 3 mM pNPP). Absorbance and slope calculations were made using the KineticCalc Application program (Bio-Tek Instruments, Inc., Winooski, VT). Results are expressed as the mean +/- S.D. of the rate of enzyme reaction (slope) averaged over the linear portion of the kinetic reaction curve (optical density readings every 5 minutes for 30 minutes absorbance reading).

TACE = target: T1, TACE (Homo sapiens, UniProt P78536); assay: Procedure for Measuring TACE Inhibition (fluorescent peptidyl substrate); format: biochemical; details: read-out: TACE % inhibition at 1 micromolar; 1 micromolar compound
T1 construct: purchased Immunex
T1 sequence (P78536 215-824): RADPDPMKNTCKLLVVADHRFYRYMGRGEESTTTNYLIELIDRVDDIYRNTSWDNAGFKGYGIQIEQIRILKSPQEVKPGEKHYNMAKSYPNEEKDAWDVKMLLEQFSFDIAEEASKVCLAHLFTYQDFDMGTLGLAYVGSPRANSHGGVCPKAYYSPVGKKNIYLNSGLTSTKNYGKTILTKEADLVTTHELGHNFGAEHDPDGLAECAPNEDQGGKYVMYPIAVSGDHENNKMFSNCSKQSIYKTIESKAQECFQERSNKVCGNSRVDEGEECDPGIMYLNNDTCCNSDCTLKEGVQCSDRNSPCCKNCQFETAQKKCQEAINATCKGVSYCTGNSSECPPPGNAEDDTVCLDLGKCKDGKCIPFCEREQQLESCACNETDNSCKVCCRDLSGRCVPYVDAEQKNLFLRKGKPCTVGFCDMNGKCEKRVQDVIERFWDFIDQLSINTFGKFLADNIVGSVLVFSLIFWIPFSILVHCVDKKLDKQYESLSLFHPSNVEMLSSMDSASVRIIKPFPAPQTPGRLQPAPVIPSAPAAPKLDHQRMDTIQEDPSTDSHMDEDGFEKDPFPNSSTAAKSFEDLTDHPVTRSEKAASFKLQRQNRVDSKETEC
Method: Using 96-well black microtiter plates, each well receives a solution composed of 10 µL TACE (Immunex, final concentration 1µg/mL), 70µL Tris buffer, pH 7.4 containing 10% glycerol (final concentration 10 mM), and 10 µL of test compound solution in DMSO (final concentration 1µM, DMSO concentration <1%) and incubated for 10 minutes at room temperature. […] The reaction is read (excitation 340 nm, emission 420 nm) for 10 min. and the increase in fluorescence over time is plotted as a linear line. The slope of the line is calculated and represents the reaction rate. The linearity of the reaction rate is confirmed (r^2 >0.85). The mean (x±sem) of the control rate is calculated and compared for statistical significance (p<0.05) with drug-treated rates using Dunnett's multiple comparison test. […]
The reaction is read (excitation 340 nm, emission 420 nm) for 10 min. and the increase in fluorescence over time is plotted as a linear line. The slope of the line is calculated and represents the reaction rate.
The linearity of the reaction rate is confirmed (r^2 >0.85). The mean (x±sem) of the control rate is calculated and compared for statistical significance (p<0.05) with drug-treated rates using Dunnett's multiple comparison test.

C[C@]12CC[C@@H]3c4ccc(O)cc4CC[C@H]3[C@@H]1CC[C@@H]2O [17_-estradiol]
uterine wet weight, 1 uG 17_-estradiol ([1]; control = 30.7 mg): 1 uG 17_-estradiol = 63.2 mg
uterine wet weight, 1 uG 17_-estradiol ([1]; control = 42.7 mg): 1 uG 17_-estradiol = 98.2 mg

Cc1c(-c2ccc(O)cc2)n(Cc2ccc(OCCN3CCCCC3)cc2)c2ccc(O)cc12 [Example 15, 2-(4-Hydroxy-phenyl)-3-methyl-1-[4-(2-piperidin-1-yl-ethoxy)-benzyl]-1H-indol-5-ol]
% Activation (Ishikawa cells; 48 h): 1% activity (1% with 1 nM 17_-estradiol)
uterine wet weight, 10uG ([1]; control = 30.7 mg): 39.9 mg
uterine wet weight, 100uG + 1uG 17 -estradiol ([1]; 100 uG compound + 1 uG 17_ estradiol daily ip (antiestrogenicity), control = 30.7 mg): 24.3 mg
uterine wet weight, 100uG ([1]; control = 30.7 mg): 27.4 mg

COc1ccc(S(=O)(=O)C(C)(Cc2ccc(OCCN3CCCCC3)cc2)C(=O)NO)cc1 (centres unmarked) [Example 26]
inhibition at 1 µM (TACE): 41%

O=C(c1ccc(OCCN2CCCCC2)cc1)c1c(-c2ccc(O)cc2)sc2cc(O)ccc12 [Raloxifene, [2-(4-hydroxyphenyl)-6-hydroxybenzo[b]thien-3-yl][4-(1-piperidinyl0ethoxy]phenyl-methanone hydrochloride]
% Activation (Ishikawa cells; 48 h): 5% activity (5% with 1 nM 17_-estradiol)
uterine wet weight, 10uG ([1]; control = 42.7 mg): 47.5 mg
uterine wet weight, 100uG ([1]; control = 42.7 mg): 43.2 mg

CC/C(=C(\c1ccccc1)c1ccc(OCCN(C)C)cc1)c1ccccc1 [Tamoxifen]
uterine wet weight, 10uG ([1]; control = 42.7 mg): 69.6 mg
uterine wet weight, 100uG ([1]; control = 42.7 mg): 71.4 mg

C[C@]12CC[C@@H]3c4ccc(O)cc4CC[C@H]3[C@@H]1C[C@@H](O)[C@@H]2O [estriol]
EC50 (Ishikawa cells; read-out: ED50 values (95% C.I.), estrogenic activity by the alkaline phosphatase method, reference standards): 0.13 nM

C[C@]12CC[C@@H]3c4ccc(O)cc4CC[C@H]3[C@@H]1CCC2=O [estrone]
EC50 (Ishikawa cells; 48 h, read-out: ED50 values (95% C.I.), estrogenic activity by the alkaline phosphatase method, reference standards): 0.36 nM
